Experiments:
NCI-H292 cells [1] = assay: IP-10 and IL-6 release from TROP2 positive NCI-H292 cells, 120 hours (MSD); assay type: cell-based, human; conditions: for EC50: Homo sapiens
Procedure: The cell supernatant was collected and IP-10 and IL-6 released in the cell culture medium was measured using Streptavidin single spot 96 well plates, compatible human antibody pairs, and calibrating solutions commercially available from MesoScale Discovery. Raw data generated by the Meso Scale Discovery (MSD®) SQ120 plate reader was imported into MSD Discovery Workbench software. Unknown sample values were interpolated from standard curves by the software and imported into Graphpad Prism. Each cytokine level was fitted with non-linear regression analysis, using log(agonist) vs. response, variable slope, 4-parameter fit equation in GraphPad Prism.

[2] = system: TROP2 positive NCI-H292, NCI-H441 cells and TROP2 negative NCI-H460 and NCI-H1703 cells; assay: Cell proliferation (cell killing) assay, cell line panel; assay type: cell-based, human; conditions: all TROP2 positive and negative cell lines tested
Procedure: (§1) The cytotoxicity of the ADCs, iSACs and iADCs was measured in a cell proliferation assay. TROP2 positive NCI-H292, NCI-H441 cells and TROP2 negative NCI-H460 and NCI-H1703 cells were obtained from ATCC (American Type Culture Collection) and maintained in DMEM/F12 (1:1), high glucose (Corning) supplemented with 10% heat-inactivated fetal bovine serum (Thermo Scientific), 2 mM glutamax (Thermo Scientific), and 1× Penicillin/Streptomycin (Corning).
(§2) Cells were collected and counted by the Vi-CELL Cell Viability Analyzers (Beckman Coulter). A total of 7500 cells in a volume of 50 uL were seeded in each well of a 96-well flat bottom white Polystyrene plate. Test articles were diluted at 2× final concentration in the cell culture medium and 50 uL was added into each treatment well. Assay plates were cultured at 37° C. in a CO2 incubator for 120 hours. For cell viability measurement, 60 μL of Cell Titer-Glo® reagent (Promega Corp. Madison, WI) was added into each well, and plates were processed as per product instructions. Relative luminescence was measured on an ENVISION® plate reader (Perkin-Elmer; Waltham, MA). Relative luminescence readings were converted to % viability using untreated cells as controls. Data was fitted with non-linear regression analysis, using log(inhibitor) vs. response-variable slope, 4 parameter fit equation using GraphPad Prism (GraphPad v 5.00, Software; San Diego, CA).

NCI-H292 cells [3] = assay: Immunogenic cell death: cell surface calreticulin (CALR) on live cells (flow cytometry), 48 hours; assay type: cell-based, human; conditions: for induction of CALR on live cells compared to untreated cells: NCI-H292 cells
Procedure: (§3) Immunogenic cell death elicited by the TROP2 ADC, iSAC, iADCs and exatecan were measured by cell surface translocate of calreticulin and release of HMGB1 in the cell culture supernatant. Briefly, TROP2 positive cell line NCI-H292 were seeded into a 96-well flat bottom plate 4 hours prior to the initialization of the assay. Test articles were formulated at a 2× starting concentration in cell culture medium, and samples were serial diluted (1:3) under sterile conditions and added onto the cells in duplicates. After incubation at 37° C. in a CO2 incubator for 48 hours, the cell supernatant was collected for measuring HMGB1 and the adherent cells were collected for calreticulin expression on the cell surface.
NCI-H292 cells were detached using Accutase (Innovative Cell Technologies) and viability was accessed using a 1:500 dilution of Zombie NIR viability dye. […] Surface calreticulin measures on the live cells were gathered using an Attune NXT Flow Cytometer (ThermoFisher Scientific) to obtain median fluorescence intensity values. All data were fitted with non-linear regression analysis, using log(agonist) vs. response, variable slope, 4 parameter fit equation using GraphPad Prism.

NCI-H292 cells [4] = assay: Immunogenic cell death: HMGB1 release in supernatant (sandwich ELISA), 48 hours; assay type: cell-based, human
Procedure: as §3
HMGB1 released in the supernatant was assessed via sandwich ELISA using mouse anti-human HMGB1 clone 2F6 (Sigma-Aldrich) as the capture, polyclonal rabbit anti-human HMGB1 (Abcam) as secondary, and polyclonal goat anti-rabbit IgG HRP as the detection antibody. The HMGB1 concentrations in the cell culture medium were calculated based a standard curve built on commercially available recombinant human HMGB1 (R&D Systems).

NCI-H441 (Trop2+) = assay: Cell proliferation (cell killing) assay, Cell Titer-Glo, 120 hours; assay type: cell-based, human; conditions: for EC50: Homo sapiens
Procedure: as §1, §2

NCI-H292 (Trop2+) = assay: as above; assay type: cell-based, human; conditions: for EC50: Homo sapiens
Procedure: as §1, §2

NCI-H460 (Trop2-) = assay: as above; assay type: cell-based, human; conditions: for EC50: Homo sapiens
Procedure: as §1, §2

NCI-H1703 (Trop2-) = assay: as above; assay type: cell-based, human; conditions: for EC50: Homo sapiens
Procedure: as §1, §2

[5] = system: NCI-H441 cells and human PBMCs; assay: NCI-H441/PBMC co-culture (title of Table 16): cytokine (IP-10) release; assay type: cell-based; parameters: key: NC = Not Calculable due to incomplete curve
Procedure: (§4) For the co-culture assay, cancer cells were plated on transparent flat bottom polystyrene plates and allowed to attach overnight. The next day, serially diluted (1:4) test articles were formulated at 3× starting concentration in complete RPMI media and added onto each well. Human PBMCs were thawed and resuspended in RPMI supplemented with 10% heat-inactivated fetal bovine serum from Hyclone, 1% Penicillin/Streptomycin and 2 mM/L-glutamax. PBMCs were then added into the same well at a final ratio of PBMCs:cancer cells=30:1. Plates were incubated for 2 or 3 days at 37° C. with 5% CO2 in a cell culture incubator.
(§5) To measure the cytokine released in this assay, customized MSD V-plex plates were ordered to measure human IL6, IP-10, TNFα, IFNγ, IL-1α, MCP-1, MIP1α. The supernatant was thawed and diluted 1:50 using dilution buffer provided by the vendor before being added into the MSD plates. Cytokine measurement in the cell culture supernatant was carried out using protocols provided by the vendor. Raw data generated by the Meso Scale Discovery (MSD®) SQ120 plate reader were imported into MSD Discovery Workbench software. Unknown sample values were interpolated from standard curves by the software and imported into GraphPad Prism. Each cytokine level was fitted with non-linear regression analysis, using log(agonist) vs. response, variable slope, 4-parameter fit equation in GraphPad Prism. […]

NCI-H460 cells = assay: NCI-H460/PBMC co-culture (TROP2 negative): tumor cell killing; assay type: cell-based, human
Procedure: (§6) The ability of different TROP2 iADCs to induce cancer cell killing, immune activation, and cytokine release was evaluated in an in vitro co-culture assay with human cancer cells and human PBMCs.
(§7) Residual RBCs were removed using ACK lysis buffer (Gibco) for 10 minutes, followed by DPBS wash. Isolated PBMCs were counted, resuspended in freezing medium (Sigma) and stored in a freezing vessel at −80° C. for 24 hours before being transferred to vapor-phase liquid nitrogen for long-term storage.
as §4
On the day of sample collection, cell culture supernatants were collected and stored at −80° C. until cytokine release analyses were performed. All the cells in the well were combined (both suspension and adherent cells) and resuspended in 50 μL of PBS containing Live/Dead Fixable Violet Dead Cell Stain (Thermo Fisher) and 1× human Fc block (BD Biosciences) and incubated at 37° C. for 20 minutes. […] After incubation on ice for 1 hour, cells were washed with FACS buffer and fixed with 50 uL/well of 2% PFA (paraformaldehyde) for 20 minutes. Cells were then washed with FACS buffer again and read on Cytek flow cytometer. FACS data analysis was done by Flowjo software to identify monocytes, B cells, CD4+ T cells, CD8+ T cells, NK cells and Dendritic cells and their activation status. Data from Flowjo was exported and plotted using non-linear regression analysis, log(agonist/inhibitor) vs. response, variable slope, 4-parameter fit equation in GraphPad Prism. […]

[6] = system: NCI-H460 cells and human PBMCs; assay: NCI-H460/PBMC co-culture (TROP2 negative): cytokine (IP-10) release; assay type: cell-based; parameters: key: NC = Not Calculable due to incomplete curve
Procedure: as §4, §5

human PBMCs = assay: NCI-H292/PBMC co-culture: monocyte/immune cell count and activation (FACS); assay type: cell-based; conditions: TROP2 positive NCI-H292/PBMC co-culture
Procedure: as §6, §7
(§8) For the co-culture assay, cancer cells were plated on transparent flat bottom polystyrene plates and allowed to attach overnight. The next day, serially diluted (1:4) test articles were formulated at 3× starting concentration in complete RPMI media and added onto each well. […]
(§9) On the day of sample collection, cell culture supernatants were collected and stored at −80° C. until cytokine release analyses were performed. […] Cells were then washed with FACS buffer again and read on Cytek flow cytometer. […]
(§10) The ability of different TROP2 iADCs to induce cancer cell killing, immune activation, and cytokine release was evaluated in an in vitro co-culture assay with TROP2 positive CaoV3 cells or NCI-H292 cells and human PBMCs. h1925-C06, an anti-TROP2 antibody, was conjugated to LP-C1 on the heavy chain Y180/F404 sites and to different STING agonist linker payloads at light chain K42 sites. […]

NCI-H292 cells [7] = assay: NCI-H292/PBMC co-culture: tumor cell killing (NCI-H292 cell count); assay type: cell-based, human; conditions: TROP2 positive NCI-H292/PBMC co-culture
Procedure: as §6, §7, §8, §9, §10

NCI-H441 cells = assay: NCI-H441/PBMC co-culture (title of Table 16): tumor cell killing; assay type: cell-based, human
Procedure: as §6, §7, §4, §9

[8] = NCI-H292 cells, read-out: IL-6 induction EC50
[9] = NCI-H292 cells, read-out: IP-10 induction EC50
[10] = TROP2 positive NCI-H292 cells, read-out: IL-6 Release EC50
[11] = TROP2 positive NCI-H292 cells, read-out: IP-10 Release EC50

EC50 (NCI-H292 cells [1]; [8])	EC50 (NCI-H292 cells [1]; [9])	EC50 (NCI-H292 cells [1]; [10])	EC50 (NCI-H292 cells [1]; [11])	SMILES	IL-6 Release Span (NCI-H292 cells [1]; TROP2 positive NCI-H292 cells)	IP-10 Release Span (NCI-H292 cells [1]; TROP2 positive NCI-H292 cells)	cell killing (in words) [2]	induction of CALR on live cells compared to untreated cells (NCI-H292 cells [3])	release of HMGB1 into the cell culture supernatant (NCI-H292 cells [4])	HMGB-1 Release Span (NCI-H292 cells [4]; supernatant)	Span cell killing (NCI-H441 (Trop2+))	EC50 (NCI-H441 (Trop2+))	Span cell killing (NCI-H292 (Trop2+))	EC50 (NCI-H292 (Trop2+))	Span cell killing (NCI-H460 (Trop2-))	EC50 (NCI-H460 (Trop2-))	Span cell killing (NCI-H1703 (Trop2-))	EC50 (NCI-H1703 (Trop2-))	other results
> 100 nM	> 100 nM	> 100 nM	> 100 nM	CCn1nc(C)cc1C(=O)Nc1nc2cc(C(N)=O)cc(OC)c2n1C/C=C/Cn1c(NC(=O)c2cc(C)nn2CC)nc2cc(C(N)=O)cc(OCCCN3CCC(c4nnc5n4CCNC5)CC3)c21 [Compound S-3, 1-[(E)-4-[5-Carbamoyl-2-[(2-ethyl-5-methyl-pyrazole-3-carbonyl)amino]-7-[3-[4-(5,6,7,8-tetrahydro-[1,2,4]triazolo[4,3-a]pyrazin-3-yl)-1-piperidyl]propoxy]benzimidazol-1-yl]but-2-enyl]-2-[(2-ethyl-5-methyl-pyrazole-3-carbonyl)amino]-7-methoxy-benzimidazole-5-carboxamide]	>8000 pg/mL	>4000 pg/mL	did not result in significant cell killing	no induction of CALR	30 ng/mL	11 ng/mL	<15%	> 100 nM	<15%	> 100 nM	<15%	> 100 nM	<15%	> 100 nM	
> 100 nM	> 100 nM	> 100 nM	> 100 nM	CCn1nc(C)cc1C(=O)Nc1nc2cc(C(N)=O)ccc2n1C/C=C/Cn1c(NC(=O)c2cc(C)nn2CC)nc2cc(C(N)=O)cc(OCCCN3CC4(CNCCO4)C3)c21 [Compound S-1]	>10000 pg/mL	>4000 pg/mL	did not result in significant cell killing	no induction of CALR	30 ng/mL	17 ng/mL	<15%	> 100 nM	<15%	> 100 nM	<15%	> 100 nM	<15%	> 100 nM	

SMILES	EC50 (NCI-H292 cells [1]; [8])	EC50 (NCI-H292 cells [1]; [9])	EC50 (NCI-H292 cells [1]; [10])	EC50 (NCI-H292 cells [1]; [11])	IL-6 Release Span (NCI-H292 cells [1]; TROP2 positive NCI-H292 cells)	IP-10 Release Span (NCI-H292 cells [1]; TROP2 positive NCI-H292 cells)	cell killing (in words) [2]	induction of CALR on live cells compared to untreated cells (NCI-H292 cells [3])	release of HMGB1 into the cell culture supernatant (NCI-H292 cells [4])	HMGB-1 Release Span (NCI-H292 cells [4]; supernatant)	Span cell killing (NCI-H441 (Trop2+))	EC50 (NCI-H441 (Trop2+))	Span cell killing (NCI-H292 (Trop2+))	EC50 (NCI-H292 (Trop2+))	Span cell killing (NCI-H460 (Trop2-))	EC50 (NCI-H460 (Trop2-))	Span cell killing (NCI-H1703 (Trop2-))	EC50 (NCI-H1703 (Trop2-))	other results
CC[C@@]1(O)C(=O)OCc2c1cc1n(c2=O)Cc2c-1nc1cc(F)c(C)c3c1c2[C@@H](N)CC3 [Exatecan, exatecan, reference compound]			14.7 nM	0.87 nM	1410 pg/mL	203 pg/mL	good cell killing	~2 fold	~70 ng/mL	55 ng/mL	89%	0.57 nM	80%	0.88 nM	83%	0.97 nM	95%	1.04 nM	IP-10 Release Span [5]: NC; induction of IP-10 and IL-6 release (in words) (NCI-H292 cells [1]; NCI-H292 cells): not; IC50 (NCI-H460 cells; Homo sapiens, NCI-H460/PBMC co-culture, TROP2 negative, tumor cell killing, read-out: Cancer Cell Count IC50): 0.38 nM; Cancer Cell Count Span (NCI-H460 cells; NCI-H460/PBMC co-culture, TROP2 negative): 23,530 Cell Count; tumor cell killing (in words) (NCI-H460 cells; TROP2 negative NCI-H460/PBMC co-culture): potent tumor cell killing; IP-10 Release Span [6]: NC; EC50 (NCI-H292 cells [3]; Homo sapiens, NCI-H292 live cells, cell surface): 0.19 nM; Calreticulin Span (NCI-H292 cells [3]; NCI-H292 live cells, cell surface): 783 MFI; immune cell activation and cytokine release (in words) (human PBMCs): did not induce activation of any immune populations; EC50 (NCI-H292 cells [4]; Homo sapiens, supernatant, read-out: HMGB-1 Release EC50): 2.08 nM; tumor cell killing (in words) (NCI-H292 cells [7]): potent tumor cell killing; IC50 (NCI-H441 cells; Homo sapiens, tumor cell killing, read-out: Cancer Cell Count IC50): 0.44 nM; Cancer Cell Count Span (NCI-H441 cells; Span = Top minus Bottom of dose response curve): 5,749 Cell Count

From patent US20260053942A1, “STING AGONIST IMMUNOSTIMULATORY ANTIBODY DRUG CONJUGATES” (ASTELLAS PHARAMA INC., priority 2024, published 2026)
